From patent US8889688B2, “Piperazines as antimalarial agents” (Actelion Pharmaceuticals Ltd., priority 2011, dated 2014) come the findings set out here.

Read-outs that look alike come from different tables or passages of the source.

In test [1] the test system is erythrocytic stages of P. falciparum NF54. Briefly: Plasmodium falciparum in vitro assay, [3H] hypoxanthine incorporation. In kind it is cell-based. To be noted: Plasmodium falciparum, Erythrocyte, 72 h, P. falciparum NF54 in human red blood cells, 48 h + 24 h incubation. The procedure:
In Vitro Antimalarial Activity: Plasmodium falciparum In Vitro Assay In vitro activity against erythrocytic stages of P. falciparum in human red blood cells is determined using a [^3H] hypoxanthine incorporation assay. […] Thereafter, the parasite cultures incubated in screening medium containing washed human red blood cells at 2.5% hematocrit (0.3% parasitemia) are added to the serially diluted compounds and incubated in a humidifying atmosphere at 37° C., 4% CO2, 3% O2, and 93% N2. After 48 h, [^3H] hypoxanthine (0.5 μCi) is added to each well of a plate. The plates are incubated for a further 24 h under the same conditions then harvested with a Betaplate cell harvester (Wallac) and washed with distilled water. The dried filters are inserted into a plastic foil with 10 mL of scintillation fluid, and counted in a Betaplate liquid scintillation counter. IC50 values are calculated from sigmoidal inhibition curves using Microsoft Excel.

For test [2], the system named is P. berghei strain GFP-ANKA. Nature of the test: In vivo antimalarial efficacy study in infected NMRI mice. The following applies: Plasmodium berghei; female NMRI mice infected with P. berghei GFP-ANKA; single oral dose of 100 mg/kg 24 h after infection; parasitemia 48 h after drug treatment (day 3); read-out: Activity (inhibition of parasitemia) expressed as a percent relative to the control group. The procedure: In Vivo Antimalarial Efficacy Studies
In vivo antimalarial activity is assessed for groups of three female NMRI mice (20-22 g) intravenously infected on day 0 with P. berghei strain GFP-ANKA (0.2 mL heparinized saline suspension containing 2×10^7 parasitized erythrocytes). In control mice, parasitemia typically rises to approximately 40% by day 3 after infection. Compounds are formulated in Tween 80/ethanol (7%/3%) usually at concentrations of 10 mg/mL. Compounds are administered in a volume of 10 mL/kg orally as single doses (1×100 mg/kg, 24 h after infection). 48 h after drug treatment (day 3 post-infection), 1 μl tail blood is taken, resuspended in 1 mL PBS buffer and parasitemia determined with a FACScan (Becton Dickinson) by counting 100′000 red blood cells. Activity is calculated as the difference between the mean value of the control group and treated groups expressed as a percent relative to the control group.

Where [3] appears, read: screening medium with Albumax (5 g/L), read-out: IC50 on NF54 (with Albumax).
Where [4] appears, read: screening medium with human serum (50% final concentration), read-out: IC50 on NF54 (with 50% Serum).

For the compound `CC(=O)N1CCN(c2ccc(CN(C(=O)C=Cc3ccc(C(C)C)cc3)[C@@H](Cc3ccccc3)C(=O)N3CCN(Cc4ccc(N(C)C)cc4)CC3)cc2)CC1` [Example 23, (S)-N-[4-(4-Acetyl-piperazin-1-yl)-benzyl]-N-{1-benzyl-2-[4-(4-dimethylamino-benzyl)-piperazin-1-yl]-2-oxo-ethyl}-3-(4-isopropyl-phenyl)-acrylamide], the 50% inhibitory concentration (IC50) was 1.3 nM in test [1] (setting [3]) and 9.5 nM in test [1] (setting [4]). Further, in test [2], the inhibition in vivo at 100 mg/kg stood at 99.1%.
`CC(=O)N1CCN(c2ccc(CN(C(=O)C=Cc3ccc(C(F)(F)F)cc3)[C@@H](Cc3ccccc3)C(=O)N3CCN(Cc4ccc(C#N)cc4)CC3)cc2)CC1` [Example 24, (S)-N-[4-(4-Acetyl-piperazin-1-yl)-benzyl]-N-{1-benzyl-2-[4-(4-cyano-benzyl)-piperazin-1-yl]-2-oxo-ethyl}-3-(4-trifluoromethyl-phenyl)-acrylamide]: the IC50 in test [1] (setting [3]) was found to be 2.8 nM; in test [1] (setting [4]), 13.9 nM. Besides, the inhibition in vivo at 100 mg/kg in test [2] amounted to 79.2%.
On to `CCOc1ccc(C=CC(=O)N(Cc2ccc(N3CCN(C(C)=O)CC3)cc2)[C@@H](Cc2ccccc2)C(=O)N2CCN(Cc3ccc(C#N)cc3)CC2)cc1` [Example 25, (S)-N-[4-(4-Acetyl-piperazin-1-yl)-benzyl]-N-{1-benzyl-2-[4-(4-cyano-benzyl)-piperazin-1-yl]-2-oxo-ethyl}-3-(4-ethoxy-phenyl)-acrylamide], for which the IC50 in test [1] (setting [3]) was found to be 1.2 nM; in test [1] (setting [4]), 4.7 nM. Moreover, in test [2], the inhibition in vivo at 100 mg/kg is 99.1%.
Take `CC(=O)Nc1ccc(C=CC(=O)N(Cc2ccc(N3CCN(C(C)=O)CC3)cc2)[C@@H](Cc2ccccc2)C(=O)N2CCN(Cc3ccc(C#N)cc3)CC2)cc1` [Example 27, (S)-3-(4-Acetylamino-phenyl)-N-[4-(4-acetyl-piperazin-1-yl)-benzyl]-N-{1-benzyl-2-[4-(4-cyano-benzyl)piperazin-1-yl]-2-oxo-ethyl}-acrylamide]: the values for the IC50 in test [1] (setting [3]) and in test [1] (setting [4]) were 1.8 nM and 12.9 nM, respectively. For the same compound, in test [2], the inhibition in vivo at 100 mg/kg is under 40%.
Turning to `CCCOc1ccc(C=CC(=O)N(Cc2ccc(N3CCN(C(C)=O)CC3)cc2)[C@@H](Cc2ccccc2)C(=O)N2CCN(Cc3ccc(C#N)cc3)CC2)cc1` [Example 28, (S)-N-[4-(4-Acetyl-piperazin-1-yl)-benzyl]-N-{1-benzyl-2-[4-(4-cyano-benzyl)-piperazin-1-yl]-2-oxo-ethyl}-3-(4-propoxy-phenyl)-acrylamide], the IC50 worked out at 1.1 nM in test [1] (setting [3]) and 3.6 nM in test [1] (setting [4]). For the same compound, the inhibition in vivo at 100 mg/kg in test [2] is 99.3%.
The corresponding values for `CC(=O)N1CCN(c2ccc(CN(C(=O)C=Cc3ccc(OC(C)C)cc3)[C@@H](Cc3ccccc3)C(=O)N3CCN(Cc4ccc(C#N)cc4)CC3)cc2)CC1` [Example 29, (S)-N-[4-(4-Acetyl-piperazin-1-yl)-benzyl]-N-{1-benzyl-2-[4-(4-cyano-benzyl)-piperazin-1-yl]-2-oxo-ethyl}-3-(4-isopropoxy-phenyl)-acrylamide] are 1.1 nM, 3.7 nM and 99.2%.
As to `CCc1ccc(C=CC(=O)N(Cc2ccc(N3CCN(C(C)=O)CC3)cc2)[C@@H](Cc2ccccc2)C(=O)N2CCN(Cc3ccc(C#N)cc3)CC2)cc1` [Example 30, (S)-N-[4-(4-Acetyl-piperazin-1-yl)-benzyl]-N-{1-benzyl-2-[4-(4-cyano-benzyl)-piperazin-1-yl]-2-oxo-ethyl}-3-(4-ethyl-phenyl)-acrylamide], the IC50 in test [1] (setting [3]) amounted to 0.9 nM; in test [1] (setting [4]), 5 nM. Besides, the inhibition in vivo at 100 mg/kg in test [2] is 97.7%.
Take `CC(=O)N1CCN(c2ccc(CN(C(=O)C=Cc3ccc(OC(F)F)cc3)[C@@H](Cc3ccccc3)C(=O)N3CCN(Cc4ccc(C#N)cc4)CC3)cc2)CC1` [Example 31, (S)-N-[4-(4-Acetyl-piperazin-1-yl)-benzyl]-N-{1-benzyl-2-[4-(4-cyano-benzyl)-piperazin-1-yl]-2-oxo-ethyl}-3-(4-difluoromethoxy-phenyl)-acrylamide]: the concentration for half-maximal inhibition (IC50) in test [1] (setting [3]) was found to be 1.7 nM; in test [1] (setting [4]), 3.8 nM. Further, the inhibition in vivo at 100 mg/kg in test [2] turned out to be 88.9%.
For `CC(=O)N1CCN(c2ccc(CN(C(=O)C=Cc3ccc(C(C)C)cc3)[C@@H](Cc3ccccc3)C(=O)N3CCN(Cc4ccc(C#N)cc4)CC3)cc2)CC1` [Example 32, (S)-N-[4-(4-Acetyl-piperazin-1-yl)-benzyl]-N-{1-benzyl-2-[4-(4-cyano-benzyl)-piperazin-1-yl]-2-oxo-ethyl}-3-(4-isopropyl-phenyl)-acrylamide], the IC50 in test [1] (setting [3]) was determined as 0.5 nM; in test [1] (setting [4]), 4.4 nM. The inhibition in vivo at 100 mg/kg in test [2] came to 98.5%.
Turning to `CC(=O)N1CCN(c2ccc(CN(C(=O)C=Cc3ccc(OC(F)(F)F)cc3)[C@@H](Cc3ccccc3)C(=O)N3CCN(Cc4ccc(C#N)cc4)CC3)cc2)CC1` [Example 33, (S)-N-[4-(4-Acetyl-piperazin-1-yl)-benzyl]-N-{1-benzyl-2-[4-(4-cyano-benzyl)-piperazin-1-yl]-2-oxo-ethyl}-3-(4-trifluoromethoxy-phenyl)-acrylamide], the IC50 in test [1] (setting [3]) came to 3.3 nM; in test [1] (setting [4]) it was 10.9 nM. The inhibition in vivo at 100 mg/kg in test [2] worked out at 97.4%.
With `CC(=O)N1CCN(c2ccc(CN(C(=O)C=Cc3ccc(C(C)(C)C)cc3)[C@@H](Cc3ccccc3)C(=O)N3CCN(Cc4ccc(C#N)cc4)CC3)cc2)CC1` [Example 34, (S)-N-[4-(4-Acetyl-piperazin-1-yl)-benzyl]-N-{1-benzyl-2-[4-(4-cyano-benzyl)-piperazin-1-yl]-2-oxo-ethyl}-3-(4-tert-butyl-phenyl)-acrylamide], the results for the half-inhibitory concentration (IC50) in test [1] (setting [3]) and in test [1] (setting [4]) were 0.5 nM and 3.8 nM, respectively. The inhibition in vivo at 100 mg/kg in test [2] came out at 99.2%.
The like results for `CCOc1ccc(C=CC(=O)N(Cc2ccc(N3CCN(C(C)=O)CC3)cc2)[C@@H](Cc2ccccc2)C(=O)N2CCN(Cc3ccc(Cl)cc3)CC2)cc1` [Example 35, (S)-N-[4-(4-Acetyl-piperazin-1-yl)-benzyl]-N-{1-benzyl-2-[4-(4-chloro-benzyl)-piperazin-1-yl]-2-oxo-ethyl}-3-(4-ethoxy-phenyl)-acrylamide] were, in that order, 2.9 nM, 9 nM and 98.7%.
Consider `CC(=O)N1CCN(c2ccc(CN(C(=O)C=Cc3ccc(S(C)(=O)=O)cc3)[C@@H](Cc3ccccc3)C(=O)N3CCN(Cc4ccc(Cl)cc4)CC3)cc2)CC1` [Example 36, (S)-N-[4-(4-Acetyl-piperazin-1-yl)-benzyl]-N-{1-benzyl-2-[4-(4-chloro-benzyl)-piperazin-1-yl]-2-oxo-ethyl}-3-(4-methanesulfonyl-phenyl)-acrylamide], for which the IC50 is 7.8 nM in test [1] (setting [3]) and 28 nM in test [1] (setting [4]). The inhibition in vivo at 100 mg/kg in test [2] turned out to be 46.8%.
On to `CCCOc1ccc(C=CC(=O)N(Cc2ccc(N3CCN(C(C)=O)CC3)cc2)[C@@H](Cc2ccccc2)C(=O)N2CCN(Cc3ccc(Cl)cc3)CC2)cc1` [Example 38, (S)-N-[4-(4-Acetyl-piperazin-1-yl)-benzyl]-N-{1-benzyl-2-[4-(4-chloro-benzyl)-piperazin-1-yl]-2-oxo-ethyl}-3-(4-propoxy-phenyl)-acrylamide], for which the results for the IC50 in test [1] (setting [3]) and in test [1] (setting [4]) were 1.8 nM and 9 nM, respectively. Further, the inhibition in vivo at 100 mg/kg in test [2] amounted to 98.5%.
For the compound `CC(=O)N1CCN(c2ccc(CN(C(=O)C=Cc3ccc(OC(C)C)cc3)[C@@H](Cc3ccccc3)C(=O)N3CCN(Cc4ccc(Cl)cc4)CC3)cc2)CC1` [Example 39, (S)-N-[4-(4-Acetyl-piperazin-1-yl)-benzyl]-N-{1-benzyl-2-[4-(4-chloro-benzyl)-piperazin-1-yl]-2-oxo-ethyl}-3-(4-isopropoxy-phenyl)-acrylamide], the values for the IC50 in test [1] (setting [3]) and in test [1] (setting [4]) were 2.3 nM and 11 nM, respectively. Besides, in test [2], the inhibition in vivo at 100 mg/kg stood at 99%.
For `CCc1ccc(C=CC(=O)N(Cc2ccc(N3CCN(C(C)=O)CC3)cc2)[C@@H](Cc2ccccc2)C(=O)N2CCN(Cc3ccc(Cl)cc3)CC2)cc1` [Example 40, (S)-N-[4-(4-Acetyl-piperazin-1-yl)-benzyl]-N-{1-benzyl-2-[4-(4-chloro-benzyl)-piperazin-1-yl]-2-oxo-ethyl}-3-(4-ethyl-phenyl)-acrylamide], the IC50 amounted to 1.7 nM in test [1] (setting [3]) and 10.5 nM in test [1] (setting [4]). Moreover, the inhibition in vivo at 100 mg/kg in test [2] amounted to 93.6%.
